From patent US8907106B2, “Process for the resolution of enantiomers by preferential evaporative crystallization” (Universite de Rouen, priority 2009, dated 2014)

Experiment: Solubility of the racemic mixture in methanol
Type: physicochemical

- difference in solubility of the racemic mixture between 40° C. and 20° C. (40° C. vs 20° C., in absolute value, solvent of Example 2 is methanol): 0.85%
- Solubility of the racemic mixture in the methanol at reflux (methanol at reflux): 23%
SMILES: O=C([O-])C(O)c1ccccc1Cl.[Na+] (racemic) [Sodium 2-chloromandelate]
